Where “and” joins values, the source holds several entries; their conditions need not be identical. Equal values may be shown once.
Experiments:
Assay type in all cases: cell-based
[1] = target: T1, human muscarinic acetylcholine M1 receptor (M1R) (Homo sapiens, UniProt P11229); assay: Ca2+ mobilization counter-screen in M1R-CHOk1 cells; settings: individual replicates (Supplementary Figure 5)
T1 sequence (P11229 1-460): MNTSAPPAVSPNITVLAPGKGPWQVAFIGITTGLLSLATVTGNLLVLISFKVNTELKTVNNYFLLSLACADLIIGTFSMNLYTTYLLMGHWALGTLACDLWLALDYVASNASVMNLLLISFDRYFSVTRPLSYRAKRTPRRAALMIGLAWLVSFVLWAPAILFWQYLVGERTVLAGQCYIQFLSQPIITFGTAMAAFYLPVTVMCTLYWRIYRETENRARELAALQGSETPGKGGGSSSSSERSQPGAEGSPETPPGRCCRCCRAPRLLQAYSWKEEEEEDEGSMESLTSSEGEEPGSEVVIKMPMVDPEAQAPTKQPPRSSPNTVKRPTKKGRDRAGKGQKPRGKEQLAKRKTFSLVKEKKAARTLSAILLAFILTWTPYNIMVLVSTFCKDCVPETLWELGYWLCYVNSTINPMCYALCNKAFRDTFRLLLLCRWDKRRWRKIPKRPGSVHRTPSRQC
Procedure, shortened: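 Stable M1R-CHOk1 line; Fluo-4 AM 2 µM, 1 h, 37 °C; HEPES-buffered HBSS pH 7.4 + 1 mM MgCl2/CaCl2 + 2.5 mM probenecid; 10 min equilibration; compound injected post-baseline; ex 485/em 525, 37 °C; DMSO ≤0.3%.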

GPR139 [2] = target: T2, GPR139 (Homo sapiens, UniProt Q6DWJ6); assay: Ca2+ mobilization assay, antagonist mode (EC80 800 nM Lundbeck Cmp 1a after 20 min preincubation), GPR139-CHOk1; settings: individual replicates (Supplementary Figure 4)
T2 sequence (Q6DWJ6 1-353): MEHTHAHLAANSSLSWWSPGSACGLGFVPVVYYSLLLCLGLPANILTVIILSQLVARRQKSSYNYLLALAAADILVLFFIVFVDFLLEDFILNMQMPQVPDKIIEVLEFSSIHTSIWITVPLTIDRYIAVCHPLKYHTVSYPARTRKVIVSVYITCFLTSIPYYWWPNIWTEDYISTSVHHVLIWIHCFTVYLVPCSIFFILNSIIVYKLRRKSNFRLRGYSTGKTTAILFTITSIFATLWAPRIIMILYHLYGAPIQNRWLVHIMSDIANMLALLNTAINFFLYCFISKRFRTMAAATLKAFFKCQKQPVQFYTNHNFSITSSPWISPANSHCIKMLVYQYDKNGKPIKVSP
Procedure, shortened: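 Fluo-4-loaded GPR139-CHOk1 cells in HEPES-buffered HBSS (pH 7.4, 2.5 mM probenecid) given test compounds at 10 µM, then after 20 min challenged with 800 nM Lundbeck Cmp 1a (EC80). Calcium fluorescence read at 37 °C, 485/525 nm.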

GPR139 [3] = target: T2, GPR139; assay: Ca2+ mobilization assay, agonist mode, stable GPR139-CHOk1 cell line; settings: for EC50 / Emax: Supplementary Table 2, mean ± SEM; for EC50: read-out: pEC50 Ca2+ (converted); for Emax: normalized to Lundbeck Cmp 1a, read-out: Emax (%) Ca2+
Procedure, shortened: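 Agonist activity of compounds is assessed in stably transfected CHO-K1 cells using the calcium dye Fluo-4 at 37 °C in HEPES-buffered HBSS (pH 7.4). Efficacy is expressed relative to the reference agonist Lundbeck Cmp 1a, set as 100%.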

[4] = Agonist mode, individual replicates (Supplementary Figure 4)
[5] = log [Compound] M = -4.5, individual replicate columns
[6] = log [Compound] M = -5.0, individual replicate columns
[7] = log [Compound] M = -5.5, individual replicate columns
[8] = log [Compound] M = -6.0, individual replicate columns
[9] = log [Compound] M = -6.5, individual replicate columns
[10] = log [Compound] M = -7.0, individual replicate columns
[11] = log [Compound] M = -7.5, individual replicate columns
[12] = log [Compound] M = -8.0, individual replicate columns
[13] = log [Compound] M = -8.5, individual replicate columns
[14] = log [Compound] M = -9.0, individual replicate columns

EC50 (GPR139 [3]) [nM]	Emax (GPR139 [3]) [%]	SMILES	Ca2+ signal (% of Carbachol) [1]	Ca2+ signal (% of Cmp 1a) (GPR139 [2])	Ca2+ signal (% of Cmp 1a) (GPR139 [3]; [4])	Ca2+ signal (% of Cmp 1a) (GPR139 [3]; [5])	Ca2+ signal (% of Cmp 1a) (GPR139 [3]; [6])	Ca2+ signal (% of Cmp 1a) (GPR139 [3]; [7])	Ca2+ signal (% of Cmp 1a) (GPR139 [3]; [8])	Ca2+ signal (% of Cmp 1a) (GPR139 [3]; [9])	Ca2+ signal (% of Cmp 1a) (GPR139 [3]; [10])	Ca2+ signal (% of Cmp 1a) (GPR139 [3]; [11])	Ca2+ signal (% of Cmp 1a) (GPR139 [3]; [12])	Ca2+ signal (% of Cmp 1a) (GPR139 [3]; [13])	Ca2+ signal (% of Cmp 1a) (GPR139 [3]; [14])
2000	78 ± 3	CCc1nc(-c2nc(CC(=O)NC(C)c3ccccc3)no2)co1 (stereo not drawn) [Compound 1.42, CCC1=NC(=CO1)C2=NC(CC(=O)NC(C)C=3C=CC=CC3)=NO2]	-1.26 % of Carbachol and 0.364 % of Carbachol and 1.26 % of Carbachol	24 % of Cmp 1a and -10 % of Cmp 1a and 49 % of Cmp 1a	76 % of Cmp 1a and 54 % of Cmp 1a and 64 % of Cmp 1a	65 % of Cmp 1a and 81 % of Cmp 1a and 83 % of Cmp 1a	44 % of Cmp 1a and 85 % of Cmp 1a and 76 % of Cmp 1a	31 % of Cmp 1a and 75 % of Cmp 1a and 78 % of Cmp 1a	9 % of Cmp 1a and 29 % of Cmp 1a and 21 % of Cmp 1a	-11 % of Cmp 1a and 1.56 % of Cmp 1a and 5.36 % of Cmp 1a	-2.41 % of Cmp 1a and 0.181 % of Cmp 1a and -5 % of Cmp 1a	-4.35 % of Cmp 1a and 3.27 % of Cmp 1a and -5.39 % of Cmp 1a	5 % of Cmp 1a and -2.46 % of Cmp 1a and -2 % of Cmp 1a	-3 % of Cmp 1a and -4 % of Cmp 1a and 0.00955 % of Cmp 1a	-3.77 % of Cmp 1a and 10 % of Cmp 1a and 3.66 % of Cmp 1a
2510	90 ± 8	Cc1nc(-c2nc(CC(=O)NC(C)c3ccccc3)no2)co1 (stereo not drawn) [Compound 1.29, CC(C1=CC=CC=C1)NC(CC2=NOC(C3=COC(C)=N3)=N2)=O]	-4.71 % of Carbachol and 3.73 % of Carbachol and 1.63 % of Carbachol	41 % of Cmp 1a and 13 % of Cmp 1a and 3 % of Cmp 1a	64 % of Cmp 1a and 49 % of Cmp 1a and 69 % of Cmp 1a	126 % of Cmp 1a and 100 % of Cmp 1a and 74 % of Cmp 1a	67 % of Cmp 1a and 101 % of Cmp 1a and 61 % of Cmp 1a	46 % of Cmp 1a and 95 % of Cmp 1a and 41 % of Cmp 1a	17 % of Cmp 1a and 47 % of Cmp 1a and 13 % of Cmp 1a	0.562 % of Cmp 1a and 21 % of Cmp 1a and 3 % of Cmp 1a	-7 % of Cmp 1a and 12 % of Cmp 1a and 3 % of Cmp 1a	-2.32 % of Cmp 1a and 6.5 % of Cmp 1a and 3.51 % of Cmp 1a	0.891 % of Cmp 1a and 5.39 % of Cmp 1a and 3 % of Cmp 1a	-0.262 % of Cmp 1a and 8 % of Cmp 1a and -2.12 % of Cmp 1a	-0.615 % of Cmp 1a and 11 % of Cmp 1a and -1.07 % of Cmp 1a
2000	94 ± 9	COc1ccc(-c2nc(CC(=O)NC(C)c3ccccc3)no2)cn1 (stereo not drawn) [Compound 1.26, COC1=NC=C(C2=NC(CC(NC(C3=CC=CC=C3)C)=O)=NO2)C=C1]	-15 % of Carbachol and -8 % of Carbachol and 11 % of Carbachol	29 % of Cmp 1a and 2 % of Cmp 1a and 52 % of Cmp 1a	85 % of Cmp 1a and 87 % of Cmp 1a and 69 % of Cmp 1a	87 % of Cmp 1a and 80 % of Cmp 1a and 98 % of Cmp 1a	81 % of Cmp 1a and 61 % of Cmp 1a and 119 % of Cmp 1a	56 % of Cmp 1a and 44 % of Cmp 1a and 97 % of Cmp 1a	34 % of Cmp 1a and 6.33 % of Cmp 1a and 46 % of Cmp 1a	12 % of Cmp 1a and -9 % of Cmp 1a and 7 % of Cmp 1a	8 % of Cmp 1a and 3 % of Cmp 1a and 10 % of Cmp 1a	2.67 % of Cmp 1a and 0 % of Cmp 1a and -4.67 % of Cmp 1a	-9 % of Cmp 1a (2×) and 6.33 % of Cmp 1a	1 % of Cmp 1a and -7 % of Cmp 1a and 3.33 % of Cmp 1a	-3.33 % of Cmp 1a and -8 % of Cmp 1a and 15 % of Cmp 1a

— paper PMC12775434, “Ultra-large virtual screening unveils potent agonists of the neuromodulatory orphan receptor GPR139” (Nature Communications, 2025)
